Reference: ChEMBL document CHEMBL1649268, “Comparative in vitro activity profile of oritavancin against recent gram-positive clinical isolates” (2009)
Values after ≈ are worked out from the molar mass of the structure shown.

Assays:
Format in all cases: functional
Streptococcus pneumoniae [1] = experiment: Antimicrobial activity against Streptococcus pneumoniae clinical isolates by broth microdilution method
Streptococcus pneumoniae [2] = experiment: Antimicrobial activity against penicillin-susceptible Streptococcus pneumoniae clinical isolates by broth microdilution method
Streptococcus pneumoniae [3] = experiment: Antimicrobial activity against penicillin-intermediate Streptococcus pneumoniae clinical isolates by broth microdilution method
Streptococcus pneumoniae [4] = experiment: Antimicrobial activity against penicillin-resistant Streptococcus pneumoniae clinical isolates by broth microdilution method
Streptococcus pneumoniae [5] = experiment: Antimicrobial activity against Streptococcus pneumoniae clinical isolates assessed as percent susceptible isolates by broth microdilution method
Streptococcus pneumoniae [6] = experiment: Antimicrobial activity against penicillin-susceptible Streptococcus pneumoniae clinical isolates assessed as percent susceptible isolates by broth microdilution method
Streptococcus pneumoniae [7] = experiment: Antimicrobial activity against penicillin-intermediate Streptococcus pneumoniae clinical isolates assessed as percent susceptible isolates by broth microdilution method
Streptococcus pneumoniae [8] = experiment: Antimicrobial activity against Streptococcus pneumoniae clinical isolates assessed as resistant isolates by broth microdilution method
Streptococcus pneumoniae [9] = experiment: Antimicrobial activity against penicillin-susceptible Streptococcus pneumoniae clinical isolates assessed as resistant isolates by broth microdilution method
Streptococcus pneumoniae [10] = experiment: Antimicrobial activity against penicillin-intermediate Streptococcus pneumoniae clinical isolates assessed as resistant isolates by broth microdilution method
Streptococcus pneumoniae [11] = experiment: Antimicrobial activity against penicillin-resistant Streptococcus pneumoniae clinical isolates assessed as resistant isolates by broth microdilution method
Enterococcus faecium [12] = experiment: Antimicrobial activity against Enterococcus faecium expressing VanB gene clinical isolates assessed as percent susceptible isolates by broth microdilution method
Enterococcus faecium [13] = experiment: Antimicrobial activity against Enterococcus faecium expressing VanA gene clinical isolates assessed as percent susceptible isolates by broth microdilution method
Enterococcus faecium [14] = experiment: Antimicrobial activity against vancomycin-nonsusceptible Enterococcus faecium clinical isolates assessed as percent susceptible isolates by broth microdilution method
Enterococcus faecium [15] = experiment: Antimicrobial activity against vancomycin-susceptible Enterococcus faecium clinical isolates assessed as percent susceptible isolates by broth microdilution method
Enterococcus faecium [16] = experiment: Antimicrobial activity against Enterococcus faecium clinical isolates assessed as percent susceptible isolates by broth microdilution method
Enterococcus faecalis [17] = experiment: Antimicrobial activity against Enterococcus faecalis expressing VanB gene clinical isolates assessed as percent susceptible isolates by broth microdilution method
Enterococcus faecalis [18] = experiment: Antimicrobial activity against Enterococcus faecalis expressing VanA gene clinical isolates assessed as percent susceptible isolates by broth microdilution method
Enterococcus faecalis [19] = experiment: Antimicrobial activity against vancomycin-nonsusceptible Enterococcus faecalis clinical isolates assessed as percent susceptible isolates by broth microdilution method
Enterococcus faecalis [20] = experiment: Antimicrobial activity against vancomycin-susceptible Enterococcus faecalis clinical isolates assessed as percent susceptible isolates by broth microdilution method
Enterococcus faecalis [21] = experiment: Antimicrobial activity against Enterococcus faecalis clinical isolates assessed as percent susceptible isolates by broth microdilution method
Enterococcus faecium [22] = experiment: Antimicrobial activity against Enterococcus faecium expressing VanB gene clinical isolates assessed as resistant isolates by broth microdilution method
Enterococcus faecium [23] = experiment: Antimicrobial activity against Enterococcus faecium expressing VanA gene clinical isolates assessed as resistant isolates by broth microdilution method
Enterococcus faecium [24] = experiment: Antimicrobial activity against vancomycin-nonsusceptible Enterococcus faecium clinical isolates assessed as resistant isolates by broth microdilution method
Enterococcus faecium [25] = experiment: Antimicrobial activity against vancomycin-susceptible Enterococcus faecium clinical isolates assessed as resistant isolates by broth microdilution method
Enterococcus faecium [26] = experiment: Antimicrobial activity against Enterococcus faecium clinical isolates assessed as resistant isolates by broth microdilution method
Enterococcus faecalis [27] = experiment: Antimicrobial activity against Enterococcus faecalis expressing VanB gene clinical isolates assessed as resistant isolates by broth microdilution method
Enterococcus faecalis [28] = experiment: Antimicrobial activity against Enterococcus faecalis expressing VanA gene clinical isolates assessed as resistant isolates by broth microdilution method
Enterococcus faecalis [29] = experiment: Antimicrobial activity against vancomycin-nonsusceptible Enterococcus faecalis clinical isolates assessed as resistant isolates by broth microdilution method
Enterococcus faecalis [30] = experiment: Antimicrobial activity against vancomycin-susceptible Enterococcus faecalis clinical isolates assessed as resistant isolates by broth microdilution method
Enterococcus faecalis [31] = experiment: Antimicrobial activity against Enterococcus faecalis clinical isolates assessed as resistant isolates by broth microdilution method
Enterococcus faecium [32] = experiment: Antimicrobial activity against Enterococcus faecium expressing VanB gene clinical isolates by broth microdilution method
Enterococcus faecium [33] = experiment: Antimicrobial activity against Enterococcus faecium expressing VanA gene clinical isolates by broth microdilution method
Enterococcus faecium [34] = experiment: Antimicrobial activity against vancomycin-nonsusceptible Enterococcus faecium clinical isolates by broth microdilution method
Enterococcus faecium [35] = experiment: Antimicrobial activity against vancomycin-susceptible Enterococcus faecium clinical isolates by broth microdilution method
Enterococcus faecium [36] = experiment: Antimicrobial activity against Enterococcus faecium clinical isolates by broth microdilution method
Enterococcus faecalis [37] = experiment: Antimicrobial activity against Enterococcus faecalis expressing VanB gene clinical isolates by broth microdilution method
Enterococcus faecalis [38] = experiment: Antimicrobial activity against Enterococcus faecalis expressing VanA gene clinical isolates by broth microdilution method
Enterococcus faecalis [39] = experiment: Antimicrobial activity against vancomycin-nonsusceptible Enterococcus faecalis clinical isolates by broth microdilution method
Enterococcus faecalis [40] = experiment: Antimicrobial activity against vancomycin-susceptible Enterococcus faecalis clinical isolates by broth microdilution method
Enterococcus faecalis [41] = experiment: Antimicrobial activity against Enterococcus faecalis clinical isolates by broth microdilution method

CC[C@H]1OC(=O)[C@H](C)C(=O)[C@H](C)[C@@H](O[C@@H]2O[C@H](C)C[C@H](N(C)C)[C@H]2O)[C@](C)(OC)C[C@@H](C)C(=O)[C@H](C)[C@H]2N(CCCCn3cnc(-c4cccnc4)c3)C(=O)O[C@]12C [TELITHROMYCIN]
MIC90 (Streptococcus pneumoniae [1]): 0.25 µg/mL (≈ 0.308 µM)
MIC90 (Streptococcus pneumoniae [2]): 0.015 µg/mL (≈ 0.0185 µM)
MIC90 (Streptococcus pneumoniae [3]): 0.25 µg/mL (≈ 0.308 µM)
MIC90 (Streptococcus pneumoniae [4]): 0.5 µg/mL (≈ 0.616 µM)
Activity (Streptococcus pneumoniae [5]): 100%
Activity (Streptococcus pneumoniae [6]): 100%
Activity (Streptococcus pneumoniae [7]): 100%
Resistant isolates (Streptococcus pneumoniae [8]): 0%
Percent of isolates resistant (Streptococcus pneumoniae [9]): 0%
Percent of isolates resistant (Streptococcus pneumoniae [10]): 0%
Percent of isolates resistant (Streptococcus pneumoniae [11]): 0%

GENTAMICIN
Activity (Enterococcus faecium [12]): 75.9%
Activity (Enterococcus faecium [13]): 62.9%
Activity (Enterococcus faecium [14]): 63.3%
Activity (Enterococcus faecium [15]): 74.9%
Activity (Enterococcus faecium [16]): 68.3%
Activity (Enterococcus faecalis [17]): 29.4%
Activity (Enterococcus faecalis [18]): 16.9%
Activity (Enterococcus faecalis [19]): 19.5%
Activity (Enterococcus faecalis [20]): 67.8%
Activity (Enterococcus faecalis [21]): 65.4%
Activity (Enterococcus faecium [22]): 24.1%
Activity (Enterococcus faecium [23]): 37.1%
Activity (Enterococcus faecium [24]): 36.7%
Activity (Enterococcus faecium [25]): 25.1%
Activity (Enterococcus faecium [26]): 31.7%
Activity (Enterococcus faecalis [27]): 70.6%
Activity (Enterococcus faecalis [28]): 83.1%
Activity (Enterococcus faecalis [29]): 80.5%
Activity (Enterococcus faecalis [30]): 32.2%
Activity (Enterococcus faecalis [31]): 34.6%
MIC (Enterococcus faecium [32]): > 500 µg/mL
MIC90 (Enterococcus faecium [32]): > 500 µg/mL
MIC (Enterococcus faecium [33]): > 500 µg/mL
MIC90 (Enterococcus faecium [33]): > 500 µg/mL
MIC (Enterococcus faecium [34]): > 500 µg/mL
MIC90 (Enterococcus faecium [34]): > 500 µg/mL
MIC (Enterococcus faecium [35]): > 500 µg/mL
MIC90 (Enterococcus faecium [35]): > 500 µg/mL
MIC (Enterococcus faecium [36]): > 500 µg/mL
MIC90 (Enterococcus faecium [36]): > 500 µg/mL
MIC (Enterococcus faecalis [37]): > 500 µg/mL
MIC90 (Enterococcus faecalis [37]): > 500 µg/mL
MIC (Enterococcus faecalis [38]): > 500 µg/mL
MIC90 (Enterococcus faecalis [38]): > 500 µg/mL
MIC (Enterococcus faecalis [39]): > 500 µg/mL
MIC90 (Enterococcus faecalis [39]): > 500 µg/mL
MIC (Enterococcus faecalis [40]): > 500 µg/mL
MIC90 (Enterococcus faecalis [40]): > 500 µg/mL
MIC (Enterococcus faecalis [41]): > 500 µg/mL
MIC90 (Enterococcus faecalis [41]): > 500 µg/mL
